Experimental data as given in PubChem BioAssay (NCI).
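Method: 48-hour compound exposure of cells in 96-well plates, five concentrations, linear interpolation of endpoints. Definition used: TGI = concentration required for complete inhibition of growth.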

Tests used:
Experiment in all cases: DTP human tumour cell line panel, 48 h
A549 NSCLC = tested on: A549 NSCLC
LOX IMVI melanoma = tested on: LOX IMVI melanoma
COLO 205 colon = tested on: COLO 205 colon
SNB-19 CNS = tested on: SNB-19 CNS
A498 renal = tested on: A498 renal
HCT-116 colon = tested on: HCT-116 colon
UO-31 renal = tested on: UO-31 renal
SW-620 colon = tested on: SW-620 colon
BT-549 breast = tested on: BT-549 breast
HS 578T breast = tested on: HS 578T breast
SK-OV-3 ovarian = tested on: SK-OV-3 ovarian
SF-268 CNS = tested on: SF-268 CNS
SK-MEL-5 melanoma = tested on: SK-MEL-5 melanoma
MALME-3M melanoma = tested on: MALME-3M melanoma

Measured: TGI

c1ccc2c(c1)nc1n2CNC1
not listed: MALME-3M melanoma
> 100 µM: all other assays above

COC(=O)C(COC(C)=O)NC(=O)/C=C/c1ccc(O)c(OC(C)=O)c1 (stereo not drawn)
> 100 µM: all assays above

O=c1c2cc(S(=O)(=O)O)ccc2nc(COc2ccc(Oc3ccc(Cl)cc3Cl)cc2)n1-c1ccc(Cl)cc1Oc1c(Cl)cccc1Cl
35.7 µM: SF-268 CNS
63.2 µM: SK-OV-3 ovarian
32.2 µM: LOX IMVI melanoma
61.1 µM: BT-549 breast
67.8 µM: HCT-116 colon
32.1 µM: COLO 205 colon | SK-MEL-5 melanoma
67.3 µM: A498 renal
76.3 µM: HS 578T breast
> 100 µM: SNB-19 CNS | MALME-3M melanoma
79.6 µM: SW-620 colon
72.1 µM: A549 NSCLC
37 µM: UO-31 renal

Cc1ccc(NC(=O)c2cccc(OP(=O)(O)Nc3ccc(C)cc3)c2)cc1
> 100 µM: all assays above

COc1ccc(CCN2CCN(CCc3ccc(OC)cc3)CC2)cc1
> 100 µM: all assays above

COC1(OC)CC(CO)(CNc2nc(N)nc(Cl)c2/C=N\O)C1
98.5 µM: A498 renal
not listed: SK-OV-3 ovarian
> 100 µM: all other assays above

C=C(CC[C@@H](C)[C@H]1CC[C@@]2(C)C3=C(CC[C@]12C)[C@@]1(C)CC[C@H](O)[C@@H](C)C1CC3)C(C)C (stereo partly drawn)
2.51 µM: MALME-3M melanoma
4.45 µM: SNB-19 CNS
2.58 µM: A498 renal
2.41 µM: COLO 205 colon
2.48 µM: HCT-116 colon
2.35 µM: UO-31 renal
2 µM: LOX IMVI melanoma
2.79 µM: SK-OV-3 ovarian
2.55 µM: SK-MEL-5 melanoma
3.13 µM: BT-549 breast | HS 578T breast
3.44 µM: SW-620 colon
2.32 µM: A549 NSCLC

COC(=O)C(NC(=O)c1ccccc1)c1ccco1 (stereo not drawn)
not listed: LOX IMVI melanoma | COLO 205 colon
> 100 µM: all other assays above

COC(=O)C1C(=O)C=CN([C@H](C)c2ccccc2)[C@@H]1Cc1ccc(OC)c(OCc2ccccc2)c1I (stereo partly drawn)
71.9 µM: A549 NSCLC
31.7 µM: COLO 205 colon
41.1 µM: SF-268 CNS
27.8 µM: LOX IMVI melanoma
24.3 µM: HCT-116 colon
38 µM: BT-549 breast
86.4 µM: SNB-19 CNS
34.8 µM: A498 renal
27.4 µM: SK-MEL-5 melanoma
39.6 µM: MALME-3M melanoma
26.3 µM: UO-31 renal
> 100 µM: all other assays above

CCn1c2ccccc2n2c(=O)c3c(c(C#N)c12)CCCC3
> 100 µM: all assays above

CCOC(=O)CN=C1NNS(=O)(=O)c2ccccc21
> 100 µM: all assays above

CC1=CC(=O)N(n2c(Cc3ccccc3)n[nH]c2=O)C1=O
> 100 µM: all assays above

CNc1nc2n(CCO)c(-c3ccccc3)c(-c3ccccc3)nc-2c(=O)n1
> 50 µM: all assays above

COc1cc(OC)c2c(=O)c(OC)c(-c3ccc4c(c3)OCO4)oc2c1
66.6 µM: SF-268 CNS
71.7 µM: SK-OV-3 ovarian
97.6 µM: HS 578T breast
62.7 µM: SNB-19 CNS
57.1 µM: A498 renal
48.8 µM: LOX IMVI melanoma
> 100 µM: all other assays above

O=[N+]([O-])c1cccc2nc3ccccc3c(NCCC[N+]3([O-])CCOCC3)c12
0.533 µM: HCT-116 colon
0.422 µM: A498 renal
0.871 µM: A549 NSCLC
1.4 µM: BT-549 breast
2.8 µM: SNB-19 CNS
1.62 µM: LOX IMVI melanoma
1.91 µM: SF-268 CNS
0.347 µM: MALME-3M melanoma
1.53 µM: SK-OV-3 ovarian
0.241 µM: SK-MEL-5 melanoma
0.24 µM: COLO 205 colon
4.59 µM: UO-31 renal
1.6 µM: SW-620 colon
> 100 µM: HS 578T breast

COC(=O)C1=C(C(=O)OC)c2cc(OC)ccc2C(C(=S)N(C)C)S1 (stereo not drawn)
not listed: SK-MEL-5 melanoma
> 100 µM: all other assays above
